In patent publication US20040115800A1, “Selectable marker for genetically engineered cells and tissues” (priority 2003, published 2004):

Experiments:
[1] = system: A549-IRES-EGFP cells; assay: Growth inhibition assay (MTT), control-vector A549 cells; type: cell-based, human; details: 4 days
Experimental: (§1) . […] Five days following the last transduction round, flow cytometry analysis was performed to determine gene transfer efficiency and transgene expression as evaluated by GFP fluorescence. Stably transduced A549-CD-IRES-EGFP cells were subsequently expanded in complete media only, as well as in the presence of two different concentrations of ARA-C, 1 μM and 2.5 μM, for 12 days.
(§2) Gene-modified A549 cells were plated in 96-well flat-bottom tissue culture dishes at a density of 1500 cells per well. Various concentrations of ARA-C or dFdC (Lilly Research Laboratories, Indianapolis, Ind.) were added to cells in a final volume of 100 μl RPMI/10% FBS. Cells were placed at 37° C. and 4 days later exposed to 20 μl of a solution containing 3-(4,5-deimethylthiazol-2-yl)-2,5-diphenyltetrazolium bromide, i.e. MTT, for 4 hours at 37° C., and subsequently to 100 μl of a solubilization buffer (50% N,N-dimethylformamide, 20% SDS) for approximately 15 hours. The optical density was then measured at 570 nm with reference at 630 nm using a multi-well plate reader, thus providing an assessment of the percentage of surviving cells based on the cleavage of MTT by the mitochondrial dehydrogenases of living cells to the detectable formazan. Percent cell survival was ascertained using the following equation: [formula]

[2] = system: primary human lymphocytes transduced with CD-IRES-EGFP; assay: Growth suppression assay (trypan blue), CD gene-modified lymphocytes; type: cell-based; details: two weeks
From the text: (§3) Primary human lymphocytes were isolated from peripheral blood by Ficoll Hypaque™ centrifugation and plated at a cell density of ˜1×10^6 cells/ml in RPMI supplemented with 10% FBS, 50 U/ml Pen/Strep, and 200 U/ml human IL-2. The next day, lymphocytes were activated with phytohemagglutinin (PHA) for 72 hrs and subsequently co-cultivated over subconfluent 293GPG-CD-IRES-EGFP or control 293GPG-IRES-EGFP virus producers tetracycline withdrawn three days earlier for optimal high titer virion generation. Lipofectaminel was added for a final concentration of 6 μg/ml, and co-cultivation permitted to proceed for 48 hours. Lymphocytes were then carefully collected and three days later plated at a density of 600 000 cells per well of 48-well tissue culture dishes in the absence or presence of various concentrations of ARA-C in a final volume of 800 μl) complete media. After a two week period, viable cells were enumerated by trypan blue exclusion and cell survival measured as such: % cell survival=(number of cells in test well/number of cells grown in media only)×100. (Flow cytometry analysis for CD3 expression was conducted and all cells confirmed to be lymphocytes.)

[3] = system: 2.5 μM ARA-C selected A549-CD-IRES-EGFP cells; assay: Growth inhibition assay (MTT), ARA-C-selected CD gene-modified A549 cells; type: cell-based, human; details: 4 days
Experimental: as §1, §2

[4] = system: primary mouse marrow stromal cells; assay: In vitro selection and enrichment assay of CD gene-modified marrow stroma (flow cytometry); type: cell-based; details: for % GFP+ cells: 10% CD-IRES-EGFP stroma mixture (11.7% without ARA-C); for mean GFP fluorescence: 10% CD-IRES-EGFP stroma mixture (13.0±3.0 without ARA-C)
Experimental: One female C57BI/6 mouse was sacrificed by CO2 inhalation and bone marrow cells harvested by flushing the hind leg femurs and tibias with DMEM™ supplemented with 10% FBS and 50 U/ml Pen/Strep. Whole marrow was plated in 10 cm (diameter) tissue culture dishes and five days later, the nonadherent hematopoietic cells were discarded and the adherent bone marrow stromal cells cultured (for ˜3 months) at 37° C. with 5% CO2. Supernatant containing virions from subconfluent GP+envAM12-CD-IRES-EGFP or from control GP+envAM12-Neo^R-IRES-EGFP producers was placed over marrow stromal cells plated at subconfluence. Transduction was carried out twice a day for three successive days in the presence of 6 μg/ml Lipofectamine™. Over 72 hours pursuing to the last transduction round, flow cytometry analysis for GFP expression was performed to evaluate the gene transfer efficiency.
Drug exposure was ceased 7 days later, and cells expanded for an additional week in DMEMI with 10% FBS and 50U/ml Pen/Strep and analysed by flow cytometry analysis. […] Pursuant to a 1-week drug exposure (preventing total confluence by cell passaging) and subsequent week of cell expansion, percent GFP positive cells and mean GFP fluorescence were evaluated by flow cytometry analysis.

[5] = system: untransduced A549 cells; assay: Growth inhibition assay (MTT), parental A549 cells; type: cell-based, human; details: 4 days
Experimental: A549 human lung carcinoma cells, obtained from American Type Culture Collection (ATCC), were maintained in RPMI 1640 medium (Canadian Life Technologies) supplemented with 10% heat-inactivated FBS.
as §2

[6] = system: primary human lymphocytes transduced with IRES-EGFP; assay: Growth suppression assay (trypan blue), control-vector lymphocytes; type: cell-based; details: two weeks
From the text: as §3

[7] = system: A549-CD-IRES-EGFP cells; assay: Growth inhibition assay (MTT), CD gene-modified A549 cells; type: cell-based, human; details: for % cell survival: 4 days, MTT
Experimental: as §1, §2

Nc1ccn([C@@H]2O[C@H](CO)[C@@H](O)[C@@H]2O)c(=O)n1 [ARA-C, cytosine arabinoside]
% cell survival ([1]; ARA-C 1 μM): 10.6±0.4% | % cell survival ([2]; ARA-C 1 μM): 87.5±7.2% | % cell survival ([2]; ARA-C 5 μM): 98.1 ± 4.2% | % cell survival ([3]; ARA-C 1 μM, CD-modified A549 previously selected in 2.5 μM ARA-C for 12 days, MTT): 70.7±1.3% | % GFP+ cells ([4]; 0.25 μM ARA-C 1 week + 1 week culture): 51.5% | % GFP+ cells ([4]; 2.5 μM ARA-C 1 week + 1 week culture): 99.6% | effect on untransduced and NeoR-IRES-EGFP modified stroma ([4]; ARA-C 2.5 μM (printed 2.5 CM)): completely eradicate | mean GFP fluorescence ([4]; selected in 1 μM ARA-C): 48.3±6.5 | mean GFP fluorescence ([4]; selected in 2.5 μM ARA-C): 99.3±3.3 | % cell survival ([5]; ARA-C 1 μM, untransduced A549, MTT): 15.3±0.6% | % cell survival ([6]; ARA-C 1 μM, IRES-EGFP transduced lymphocytes): 5.5±1.7% | % cell survival ([6]; ARA-C 5 μM, IRES-EGFP-modified lymphocytes): 0.1±0.1% | survival of A549-CD-IRES-EGFP relative to control cells ([7]; ARA-C 1 μM): over 3 fold | % cell survival ([7]; ARA-C 1 μM, A549-CD-IRES-EGFP without post-transduction drug selection): 47.4±1.9%

Nc1ccn([C@@H]2O[C@H](CO)[C@@H](O)C2(F)F)c(=O)n1 [dFdC]
% cell survival ([1]; dFdC 0.1M (so in the source)): 10.7±0.4% | % cell survival ([3]; dFdC 0.1 μM, 2.5 μM ARA-C selected CD-IRES-EGFP modified A549, MTT): 92.1±1.7% | % cell survival ([3]; dFdC 1 μM, 2.5 μM ARA-C selected cells, MTT): 53.3±1.8% | % cell survival ([5]; dFdC 0.1M (so in the source), A549, MTT): 15.1±0.5% | % cell survival ([7]; dFdC 1 μM, unselected A549-CD-IRES-EGFP): 17.2±0.7% | % cell survival ([7]; dFdC same concentration (0.1), A549-CD-IRES-EGFP unselected): 86.4±2.4%
